Reference: US10485235B2, “Aryloxypyrimidinyl ethers as herbicides” (FMC Corporation, priority 2015, dated 2019)

How the values were obtained:
Format in all cases: in vivo
[1] = system: ryegrass, Italian (Italian ryegrass, Lolium multiflorum); assay: Test A preemergence, Italian ryegrass; details: Preemergence, 0 to 100 scale (0 no effect, 100 complete control)
Procedure, shortened: (§1)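 Ratings run 0–100, where 100 is complete control, and were scored visually against untreated plants about 10 days after treatment under greenhouse conditions. Formulated chemicals were sprayed either onto the soil surface after seeding (preemergence) or onto one- to two-leaf seedlings 2–10 cm high (postemergence).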

[2] = system: barnyardgrass (Echinochloa crus-galli); assay: Test B flooded paddy test, barnyardgrass; details: 250 g ai/ha, Flood; visual rating after 13 to 15 days; scale 0 to 100, 0 is no effect, 100 is complete control
Procedure, shortened: (§2)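 Plants grown to 2-leaf stage, pots flooded to 3 cm above soil and compound applied directly to paddy water, depth maintained throughout. After 13-15 days in greenhouse, visual rating against untreated controls on 0-100 scale (0 no effect, 100 complete control).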

[3] = system: pigweed (Amaranthus retroflexus); assay: Test A postemergence, pigweed; details: postemergence, 0 to 100 scale, 0 is no effect, 100 is complete control, approximately 10 days
Procedure, shortened: as §1

[4] = system: blackgrass (Alopecurus myosuroides); assay: Test A postemergence, blackgrass; details: postemergence, 0 to 100 scale, 0 is no effect, 100 is complete control, approximately 10 days
Procedure, shortened: as §1

[5] = system: galium (catchweed bedstraw, Galium aparine); assay: Test A postemergence, galium; details: postemergence, 0 to 100 scale, 0 is no effect, 100 is complete control, approximately 10 days
Procedure, shortened: as §1

kochia (Kochia scoparia) [6] = assay: Test A postemergence, kochia; details: postemergence, 0 to 100 scale, 0 is no effect, 100 is complete control, approximately 10 days
Procedure, shortened: as §1

[7] = system: barnyardgrass (Echinochloa crus-galli); assay: Test A postemergence, barnyardgrass; details: postemergence, 0 to 100 scale, 0 is no effect, 100 is complete control, approximately 10 days
Procedure, shortened: as §1

[8] = system: ragweed (common ragweed, Ambrosia elatior); assay: Test A preemergence, ragweed; details: Preemergence, 0 to 100 scale (0 no effect, 100 complete control)
Procedure, shortened: as §1

rice (Oryza sativa) = assay: Test B flooded paddy test, rice; details: 250 g ai/ha, Flood; visual rating after 13 to 15 days; scale 0 to 100, 0 is no effect, 100 is complete control
Procedure, shortened: as §2

[9] = system: barnyardgrass (Echinochloa crus-galli); assay: Test A preemergence, barnyardgrass; details: Preemergence, 0 to 100 scale (0 no effect, 100 complete control)
Procedure, shortened: as §1

[10] = system: ryegrass, Italian (Italian ryegrass, Lolium multiflorum); assay: Test A postemergence, Italian ryegrass; details: postemergence, 0 to 100 scale, 0 is no effect, 100 is complete control, approximately 10 days
Procedure, shortened: as §1

[11] = system: foxtail, giant (giant foxtail, Setaria faberii); assay: Test A postemergence, giant foxtail; details: postemergence, 0 to 100 scale, 0 is no effect, 100 is complete control, approximately 10 days
Procedure, shortened: as §1

[12] = system: ducksalad (Heteranthera limosa); assay: Test B flooded paddy test, ducksalad; details: 250 g ai/ha, Flood; visual rating after 13 to 15 days; scale 0 to 100, 0 is no effect, 100 is complete control
Procedure, shortened: as §2

corn (Zea mays) = assay: Test A postemergence, corn; details: postemergence, 0 to 100 scale, 0 is no effect, 100 is complete control, approximately 10 days
Procedure, shortened: as §1

[13] = system: sedge, umbrella (small-flower umbrella sedge, Cyperus difformis); assay: Test B flooded paddy test, umbrella sedge; details: 250 g ai/ha, Flood; visual rating after 13 to 15 days; scale 0 to 100, 0 is no effect, 100 is complete control
Procedure, shortened: as §2

[14] = system: pigweed (Amaranthus retroflexus); assay: Test A preemergence, pigweed; details: Preemergence, 0 to 100 scale (0 no effect, 100 complete control)
Procedure, shortened: as §1

[15] = system: foxtail, giant (giant foxtail, Setaria faberii); assay: Test A preemergence, giant foxtail; details: Preemergence, 0 to 100 scale (0 no effect, 100 complete control)
Procedure, shortened: as §1

[16] = system: wheat (Triticum aestivum); assay: Test A postemergence, wheat; details: postemergence, 0 to 100 scale, 0 is no effect, 100 is complete control, approximately 10 days
Procedure, shortened: as §1

kochia (Kochia scoparia) [17] = assay: Test A preemergence, kochia; details: Preemergence, 0 to 100 scale (0 no effect, 100 complete control)
Procedure, shortened: as §1

[18] = system: ragweed (common ragweed, Ambrosia elatior); assay: Test A postemergence, ragweed; details: postemergence, 0 to 100 scale, 0 is no effect, 100 is complete control, approximately 10 days
Procedure, shortened: as §1

Fc1cccc(Oc2ncc(Cl)cn2)c1OC/C=C/C(F)(F)F [Compound 25]
Plant response rating, Ryegrass, Italian ([1]; 125 g ai/ha): 60
Plant response rating, Ryegrass, Italian ([1]; 500 g ai/ha): 100
Plant response rating, Barnyardgrass [2]: 0
Plant response rating, Pigweed ([3]; 125 g ai/ha): 50
Plant response rating, Pigweed ([3]; 500 g ai/ha): 70
Plant response rating, Blackgrass ([4]; 125 g ai/ha): 20
Plant response rating, Blackgrass ([4]; 500 g ai/ha): 80
Plant response rating, Galium ([5]; 125 g ai/ha): 50
Plant response rating, Galium ([5]; 500 g ai/ha): 100
Plant response rating, Kochia (kochia (Kochia scoparia) [6]; 125 g ai/ha): 90
Plant response rating, Kochia (kochia (Kochia scoparia) [6]; 500 g ai/ha): 100
Plant response rating, Barnyardgrass ([7]; 125 g ai/ha): 40
Plant response rating, Barnyardgrass ([7]; 500 g ai/ha): 90
Plant response rating, Ragweed ([8]; 125 g ai/ha): 0
Plant response rating, Ragweed ([8]; 500 g ai/ha): 20
Plant response rating, Rice (rice (Oryza sativa)): 0
Plant response rating, Barnyardgrass ([9]; 125 g ai/ha): 90
Plant response rating, Barnyardgrass ([9]; 500 g ai/ha): 100
Plant response rating, Ryegrass, Italian ([10]; 125 g ai/ha): 0
Plant response rating, Ryegrass, Italian ([10]; 500 g ai/ha): 70
Plant response rating, Foxtail, Giant ([11]; 125 g ai/ha): 30
Plant response rating, Foxtail, Giant ([11]; 500 g ai/ha): 80
Plant response rating, Ducksalad [12]: 100
Plant response rating, Corn (corn (Zea mays); 125 g ai/ha): 10
Plant response rating, Corn (corn (Zea mays); 500 g ai/ha): 20
Plant response rating, Sedge, Umbrella [13]: 75
Plant response rating, Pigweed ([14]; 125 g ai/ha): 100
Plant response rating, Pigweed ([14]; 500 g ai/ha): 100
Plant response rating, Foxtail, Giant ([15]; 125 g ai/ha): 100
Plant response rating, Foxtail, Giant ([15]; 500 g ai/ha): 100
Plant response rating, Wheat ([16]; 125 g ai/ha): 0
Plant response rating, Wheat ([16]; 500 g ai/ha): 20
Plant response rating, Kochia (kochia (Kochia scoparia) [17]; 125 g ai/ha): 30
Plant response rating, Kochia (kochia (Kochia scoparia) [17]; 500 g ai/ha): 100
Plant response rating, Ragweed ([18]; 125 g ai/ha): 0
Plant response rating, Ragweed ([18]; 500 g ai/ha): 0

FCCCOc1c(F)cccc1Oc1ncc(Cl)cn1 [Compound 26]
Plant response rating, Ryegrass, Italian ([1]; 125 g ai/ha): 0
Plant response rating, Ryegrass, Italian ([1]; 500 g ai/ha): 20
Plant response rating, Barnyardgrass [2]: 0
Plant response rating, Pigweed ([3]; 125 g ai/ha): 60
Plant response rating, Pigweed ([3]; 500 g ai/ha): 90
Plant response rating, Blackgrass ([4]; 125 g ai/ha): 0
Plant response rating, Blackgrass ([4]; 500 g ai/ha): 50
Plant response rating, Galium ([5]; 125 g ai/ha): 70
Plant response rating, Galium ([5]; 500 g ai/ha): 50
Plant response rating, Kochia (kochia (Kochia scoparia) [6]; 125 g ai/ha): 60
Plant response rating, Kochia (kochia (Kochia scoparia) [6]; 500 g ai/ha): 90
Plant response rating, Barnyardgrass ([7]; 125 g ai/ha): 10
Plant response rating, Barnyardgrass ([7]; 500 g ai/ha): 60
Plant response rating, Ragweed ([8]; 125 g ai/ha): 0
Plant response rating, Ragweed ([8]; 500 g ai/ha): 20
Plant response rating, Rice (rice (Oryza sativa)): 0
Plant response rating, Barnyardgrass ([9]; 125 g ai/ha): 40
Plant response rating, Barnyardgrass ([9]; 500 g ai/ha): 100
Plant response rating, Ryegrass, Italian ([10]; 125 g ai/ha): 0
Plant response rating, Ryegrass, Italian ([10]; 500 g ai/ha): 0
Plant response rating, Foxtail, Giant ([11]; 125 g ai/ha): 10
Plant response rating, Foxtail, Giant ([11]; 500 g ai/ha): 70
Plant response rating, Ducksalad [12]: 30
Plant response rating, Corn (corn (Zea mays); 125 g ai/ha): 0
Plant response rating, Corn (corn (Zea mays); 500 g ai/ha): 10
Plant response rating, Sedge, Umbrella [13]: 0
Plant response rating, Pigweed ([14]; 125 g ai/ha): 90
Plant response rating, Pigweed ([14]; 500 g ai/ha): 100
Plant response rating, Foxtail, Giant ([15]; 125 g ai/ha): 50
Plant response rating, Foxtail, Giant ([15]; 500 g ai/ha): 100
Plant response rating, Wheat ([16]; 125 g ai/ha): 0
Plant response rating, Wheat ([16]; 500 g ai/ha): 0
Plant response rating, Kochia (kochia (Kochia scoparia) [17]; 125 g ai/ha): 10
Plant response rating, Kochia (kochia (Kochia scoparia) [17]; 500 g ai/ha): 100
Plant response rating, Ragweed ([18]; 125 g ai/ha): 0
Plant response rating, Ragweed ([18]; 500 g ai/ha): 20
